Test results as given in PubChem BioAssay (NCI).
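Cultured in 96-well plates, cells were exposed to test compound for 48 hours across five concentrations. TGI marks complete inhibition of growth.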

How the values were obtained:
Assay in all cases: DTP human tumour cell line panel, 48 h
786-0 renal = test system: 786-0 renal
A498 renal = test system: A498 renal
A549 NSCLC = test system: A549 NSCLC
ACHN renal = test system: ACHN renal
BT-549 breast = test system: BT-549 breast
CAKI-1 renal = test system: CAKI-1 renal
CCRF-CEM leukemia = test system: CCRF-CEM leukemia
COLO 205 colon = test system: COLO 205 colon
DU-145 prostate = test system: DU-145 prostate
EKVX NSCLC = test system: EKVX NSCLC
HCC-2998 colon = test system: HCC-2998 colon
HCT-116 colon = test system: HCT-116 colon
HCT-15 colon = test system: HCT-15 colon
HL-60(TB) leukemia = test system: HL-60(TB) leukemia
HOP-62 NSCLC = test system: HOP-62 NSCLC
HOP-92 NSCLC = test system: HOP-92 NSCLC
HS 578T breast = test system: HS 578T breast
HT29 colon = test system: HT29 colon
IGROV1 ovarian = test system: IGROV1 ovarian
K-562 leukemia = test system: K-562 leukemia
KM12 colon = test system: KM12 colon
LOX IMVI melanoma = test system: LOX IMVI melanoma
M14 melanoma = test system: M14 melanoma
MALME-3M melanoma = test system: MALME-3M melanoma
MCF7 breast = test system: MCF7 breast
MDA-MB-231 breast = test system: MDA-MB-231 breast
MDA-MB-435 = test system: MDA-MB-435
MDA-N = test system: MDA-N
MOLT-4 leukemia = test system: MOLT-4 leukemia
NCI-H226 lung = test system: NCI-H226 lung
NCI-H23 lung = test system: NCI-H23 lung
NCI-H460 lung = test system: NCI-H460 lung
NCI-H522 lung = test system: NCI-H522 lung
NCI/ADR-RES ovarian = test system: NCI/ADR-RES ovarian
OVCAR-3 ovarian = test system: OVCAR-3 ovarian
OVCAR-4 ovarian = test system: OVCAR-4 ovarian
OVCAR-5 ovarian = test system: OVCAR-5 ovarian
PC-3 prostate = test system: PC-3 prostate
RPMI-8226 leukemia = test system: RPMI-8226 leukemia
RXF 393 renal = test system: RXF 393 renal
SF-268 CNS = test system: SF-268 CNS
SF-295 CNS = test system: SF-295 CNS
SF-539 CNS = test system: SF-539 CNS
SK-MEL-2 melanoma = test system: SK-MEL-2 melanoma
SK-MEL-28 melanoma = test system: SK-MEL-28 melanoma
SK-MEL-5 melanoma = test system: SK-MEL-5 melanoma
SK-OV-3 ovarian = test system: SK-OV-3 ovarian
SN12C renal = test system: SN12C renal
SNB-19 CNS = test system: SNB-19 CNS
SNB-75 CNS = test system: SNB-75 CNS
SR leukemia = test system: SR leukemia
SW-620 colon = test system: SW-620 colon
T-47D breast = test system: T-47D breast
TK-10 renal = test system: TK-10 renal
U251 CNS = test system: U251 CNS
UACC-257 melanoma = test system: UACC-257 melanoma
UACC-62 melanoma = test system: UACC-62 melanoma
UO-31 renal = test system: UO-31 renal
OVCAR-8 ovarian = test system: OVCAR-8 ovarian

O=[N+]([O-])/C(C(Cl)=C(Cl)Cl)=C(/Br)SCc1ccccc1
TGI (786-0 renal): 4.64 µM | TGI (A498 renal): 15.2 µM | TGI (A549 NSCLC): 15.2 µM | TGI (ACHN renal): 6.85 µM | TGI (BT-549 breast): 4.22 µM | TGI (CAKI-1 renal): 3.65 µM | TGI (CCRF-CEM leukemia): 0.633 µM | TGI (COLO 205 colon): 3.43 µM | TGI (DU-145 prostate): 25.7 µM | TGI (EKVX NSCLC): 12.5 µM | TGI (HCC-2998 colon): 21.1 µM | TGI (HCT-116 colon): 4.13 µM | TGI (HCT-15 colon): 4.98 µM | TGI (HL-60(TB) leukemia): 0.905 µM | TGI (HOP-62 NSCLC): 41.7 µM | TGI (HOP-92 NSCLC): 5.28 µM | TGI (HS 578T breast): 47.7 µM | TGI (HT29 colon): 4.92 µM | TGI (IGROV1 ovarian): 13.3 µM | TGI (K-562 leukemia): 2.04 µM | TGI (KM12 colon): 28.5 µM | TGI (LOX IMVI melanoma): 4.24 µM | TGI (M14 melanoma): 5.79 µM | TGI (MALME-3M melanoma): 11.9 µM | TGI (MCF7 breast): 9.11 µM | TGI (MDA-MB-231 breast): 6.06 µM | TGI (MDA-MB-435): 2.94 µM | TGI (MDA-N): 4.04 µM | TGI (MOLT-4 leukemia): 1.03 µM | TGI (NCI-H226 lung): 14.9 µM | TGI (NCI-H23 lung): 12 µM | TGI (NCI-H460 lung): 24.1 µM | TGI (NCI-H522 lung): 4.49 µM | TGI (NCI/ADR-RES ovarian): 15.3 µM | TGI (OVCAR-3 ovarian): 5.02 µM | TGI (OVCAR-4 ovarian): 8.19 µM | TGI (OVCAR-5 ovarian): 18.5 µM | TGI (PC-3 prostate): 7.21 µM | TGI (RPMI-8226 leukemia): 3.39 µM | TGI (RXF 393 renal): 4.01 µM | TGI (SF-268 CNS): 7.2 µM | TGI (SF-295 CNS): 31.5 µM | TGI (SF-539 CNS): 21.4 µM | TGI (SK-MEL-2 melanoma): 13.8 µM | TGI (SK-MEL-28 melanoma): 4.09 µM | TGI (SK-MEL-5 melanoma): 16.4 µM | TGI (SK-OV-3 ovarian): 36.4 µM | TGI (SN12C renal): 5.8 µM | TGI (SNB-19 CNS): 27.7 µM | TGI (SNB-75 CNS): 9.02 µM | TGI (SR leukemia): 4.2 µM | TGI (SW-620 colon): 4.16 µM | TGI (T-47D breast): 13.5 µM | TGI (TK-10 renal): 9.61 µM | TGI (U251 CNS): 14.5 µM | TGI (UACC-257 melanoma): 11.3 µM | TGI (UACC-62 melanoma): 16.1 µM | TGI (UO-31 renal): 5.72 µM

C=CCc1cccc2cc(C(=O)NC3CCCCC3)c(=N)oc12
TGI (786-0 renal): 31.2 µM | TGI (A498 renal): 52 µM | TGI (A549 NSCLC): > 100 µM | TGI (ACHN renal): 35 µM | TGI (BT-549 breast): > 100 µM | TGI (CAKI-1 renal): 37.9 µM | TGI (CCRF-CEM leukemia): > 100 µM | TGI (COLO 205 colon): 33.5 µM | TGI (DU-145 prostate): 52.5 µM | TGI (EKVX NSCLC): > 100 µM | TGI (HCC-2998 colon): 31.2 µM | TGI (HCT-116 colon): 28.6 µM | TGI (HCT-15 colon): 34.9 µM | TGI (HL-60(TB) leukemia): > 100 µM | TGI (HOP-62 NSCLC): 37.7 µM | TGI (HOP-92 NSCLC): > 100 µM | TGI (HS 578T breast): 31.4 µM | TGI (HT29 colon): 57.7 µM | TGI (IGROV1 ovarian): > 100 µM | TGI (K-562 leukemia): > 100 µM | TGI (KM12 colon): 33 µM | TGI (LOX IMVI melanoma): 34 µM | TGI (M14 melanoma): 39.1 µM | TGI (MALME-3M melanoma): > 100 µM | TGI (MCF7 breast): > 100 µM | TGI (MDA-MB-231 breast): 35.9 µM | TGI (MDA-MB-435): 77.5 µM | TGI (MDA-N): 47.3 µM | TGI (MOLT-4 leukemia): > 100 µM | TGI (NCI-H226 lung): 44.9 µM | TGI (NCI-H23 lung): 51.8 µM | TGI (NCI-H460 lung): 35.9 µM | TGI (NCI-H522 lung): > 100 µM | TGI (NCI/ADR-RES ovarian): > 100 µM | TGI (OVCAR-3 ovarian): 28.3 µM | TGI (OVCAR-4 ovarian): 63.1 µM | TGI (OVCAR-5 ovarian): 39 µM | TGI (OVCAR-8 ovarian): 57.8 µM | TGI (PC-3 prostate): 31.2 µM | TGI (RPMI-8226 leukemia): > 100 µM | TGI (RXF 393 renal): > 100 µM | TGI (SF-268 CNS): 41.2 µM | TGI (SK-MEL-2 melanoma): 16.1 µM | TGI (SK-MEL-28 melanoma): 66.2 µM | TGI (SK-MEL-5 melanoma): 27.4 µM | TGI (SK-OV-3 ovarian): > 100 µM | TGI (SN12C renal): 29.8 µM | TGI (SNB-19 CNS): 72.8 µM | TGI (SNB-75 CNS): 35 µM | TGI (SR leukemia): > 100 µM | TGI (SW-620 colon): > 100 µM | TGI (T-47D breast): 52.8 µM | TGI (U251 CNS): > 100 µM | TGI (UACC-257 melanoma): 78 µM | TGI (UACC-62 melanoma): 41.2 µM
